Columns and labels:
[1] = system: cavernosalen glatten Muskulatur; assay: Organ bath contraction study with corpus cavernosum strips (phenylephrine-induced contraction); parameters: species or system Kaninchen; details: for Relaxation der kavernösen, glatten Muskulatur: Kaninchen, phenylephrine-precontracted tissue
Protocol: Männliche New Zealand White-Kaninchen (Gewicht: 2,5-3,0 kg) wurden mit CO2-Gas eingeschläfert. Das cavernöse Gewebe wurde beim Sezieren in eine HEPES-gepufferte Lösung (20°C, pH 7,4) eingebracht. Die oben liegende Skelettmuskulatur wurde vorsichtig entfernt, um nicht die darunterliegende Tunica albuginea zu beschädigen. Im proximalen Ende der Tunica wurde ein Schnitt ausgeführt, während sie distal erweitert wurde. Dann wurde das Corpus Cavernosum bilateral aus der Tunica herausgelöst.
Für menschliches Gewebe wurde das Verfahren zum Ernten von Gewebe vom Institutional Review Board for Human Studies am Boston University Medical Center genehmigt. Cavernöses Gewebe wurde von Patienten erhalten, die sich der Implantation einer Penisprothese zur Behandlung einer erektilen Dysfunktion unterzogen. Im Operationssaal wurden Biopsien der Corpora cavernosa sofort in eisgekühlte (4°C) physiologische Salzlösung gelegt und zum Labor transportiert. Gewebestreifen mit einer Größe von etwa 3 mm x 3mm x 10 mm wurden zugeschnitten und für Organbadstudien gemäß einem ähnlichen Verfahren wie dem nachfolgend beschriebenen präpariert.
Längsschnitte des Corpus cavernosum wurden in Organbäder gelegt, die folgendes (in mM) enthielten: 118 NaCI, 4,7 KCI, 1,2 KH2PO4, MgSO4, 24,9 NaCO3, 5,5 Glucose, 2,0 Na-Pyruvat und 2,0 CaCl2. Die Streifen cavernöser, glatter Muskulatur wurden mit 2 Gramm gestreckt und mit einem Gemisch von 95% O2 und 5% CO2 während zwei Stunden äquilibriert, bevor mit dem Versuchsverfahren begonnen wurde. Dann wurden die Gewebe an Kraftwandler (Grass FT03) angeschlossen. Die Spannungsmessungen wurden mit einem MP100-System und der AcqKnowledge-Software (Biopac) digital aufgezeichnet.
Die Gewebe wurden mit Indomethacin (10 µM) vorbehandelt, um Cyclooxygenaseeffekte zu beseitigen. Durch Zugabe von Phenylephrin (10 µM) zu den Organkammern wurden Kontraktionen induziert. Nachdem die Phenylephrin-induzierte Kontraktion einen dauerhaften Zustand erreicht hatte, wurde das tricyclische Pteridinon (Pt) (Fig. 1a und 1b) oder der Stickstoffoxid-Donor S-Nitroso-N-acetylpenicillamin (SNAP) zugegeben (Fig. 2).

[2] = system: PDE IV; assay: PDE subtype profile: inhibition of isolated PDE isozyme; type: biochemical, Ratten; details: PDE IV aus Rattenniere
Protocol: (§1) Die verschiedenen Formen cyclischer Nukleotidphosphodiesterasen (PDE) wurden mit üblichen Methoden isoliert. Die PDE-lsozyme wurden aus den folgenden Quellen isoliert: PDE I und PDE V aus Rinder-Aorta, PDE II aus dem linken Ventrikel von Ratten, PDE IV aus Rattenniere und PDE III aus menschlichen Plättchen.
(§2) Die PDE-Aktivität wurde in einem Reaktionsmedium gemessen, das 40 mM Tris-HCI (pH 8,0), 5 mM MgCl2, 1 mM Dithiothreitol und 0,2 µM [^3H] cyclisches GMP enthielt. Das tricyclische Pteridinon wurde in DMSO (2,5%) gelöst. Bei dieser DMSO-Konzentration wurde die Enzymaktivität zu etwa 10% inhibiert. Die IC50-Werte für das tricyclische Pteridinon wurden anhand von Dosis-Wirkungs-Kurven bestimmt, bei denen die Konzentration im Bereich von 1 nM bis 10 µM (ganze log-Inkremente) lag. Für jedes untersuchte PDE-Isozym wurden mindestens zwei IC50-Bestimmungen an verschiedenen Tagen durchgeführt.

[3] = system: Macaca fascicularis-Affen; assay: Monkey model of male erectile dysfunction (intracavernous pressure, blood pressure); type: in vivo; details: for Maximaler Druck / Mittlerer Druckanstieg: intracavernous bolus 0,5 ml, given after nitroprusside response returned to baseline
Protocol: Das tricyclische Pteridinon wurde Macaca fascicularis-Affen als intracavernöse Bolusinjektion (0,5 ml, mit 0,5 ml Kochsalzlösung-Flush) verabreicht. Die Auswirkungen auf den intracavernösen Druck wurden mitlaufend gemessen und mit denen des Stickstoffoxid-Donors Nitroprussid (SNP oder NP) verglichen. Stickstoffoxid induziert eine Erektion, indem es als Guanylatcyclase-Agonist wirkt.
Die abschließende Reihe der in vivo-Versuche an Affen untersuchte die Effekte des tricyclischen Pteridinon bei intravenöser Verabreichung (1 und 3 mg/kg) 15 Minuten vor der intracavernösen Injektion von Nitroprussid (10^-5 M). Diese Vorgehensweise wurde gewählt, um zu bestimmen, ob die "systemische Verabreichung" von tricyclischem Pteridinon die Nitroprussid-induzierte, erektile Reaktion wirksam verstärkt.

[4] = Pharmacokinetic experiments, plasma levels after oral administration; type: in vivo; details: species not given
[5] = system: Macaca fascicularis-Affen; assay: Monkey model of male erectile dysfunction (intracavernous pressure, blood pressure); type: in vivo
[6] = target: T1, PDE III (Homo sapiens, UniProt Q14432); assay: PDE subtype profile: inhibition of isolated PDE isozyme; type: biochemical; details: PDE III aus menschlichen Plättchen
T1 construct: Die PDE-lsozyme wurden aus den folgenden Quellen isoliert; from tissue; host or cells: human platelets
Protocol: as §1, §2

[7] = target: T2, PDE V (Bos taurus, UniProt Q28156); assay: as above; type: biochemical; details: PDE V aus Rinder-Aorta
T2 construct: Die PDE-lsozyme wurden aus den folgenden Quellen isoliert; from tissue; host or cells: bovine aorta
Protocol: as §1, §2

[8] = system: PDE I; assay: as above; type: biochemical; details: PDE I aus Rinder-Aorta; 0,2 µM [3H] cyclisches GMP
Protocol: as §1, §2

[9] = system: PDE VI; assay: as above; type: biochemical; details: source of PDE VI not given
Protocol: as §2

[10] = system: Katzen; assay: Cat model of male erectile dysfunction (intracavernous pressure, systemic blood pressure); type: in vivo
Protocol: Geschlechtsreife männliche Katzen (Körpergewicht 2,9-4,6 kg) wurden mit α-Chloralose (60 mg/kg i.m.) narkotisiert. Dann wurden Hartmansche Lösung und eine Dextroselösung bei […] über die antekubitale Vene infundiert. Die Beatmung wurde über eine an einen Tierventilator (Harvard Apparatus Ltd., Boston MA) angeschlossene Tracheotomie sichergestellt. Pancuroniumbromid (0,3 ml/kg) wurde als Muskelrelaxans infundiert. Nach Bedarf wurden zusätzliche Dosen von α-Chlorase und Pancuroniumbromid gegeben, um ein gleichbleibendes Anästhesie-Niveau beizubehalten.
In der inneren Carotid-Arterie wurde ein zentraler Katheter gelegt, um eine Arterienblut-Gasanalyse (ABGA) durchzuführen und den systemischen Blutdruck in der Arterie aufzuzeichnen. Eine 23 G-Nadel wurde in das Corpus cavernosum eingeführt, um die Veränderungen des intracavernösen Drucks (ICP) zu messen. Sowohl der systemische, arterielle Blutdruck als auch der ICP wurden mittels eines Druckwandlers (Gilson P23XL-1, physiologischer Druckwandler, Ohmeda, Kanada), der an einen Polygraphen (Grass Model 7D, Quincy, MA, USA) angeschlossen war, gemessen. Zur lokalen Injektion von Versuchsverbindungen wurde ein Zweig der inneren Pudendalarterie auf einer Seite mit einem länglichen Polyethylenschlauch (PE-10-Schlauch, Original-Innendurchmesser 0,25 mm, Außendurchmesser 0,76 mm) retrograd mikrokanüliert. Dann wurden zur Verabreichung der Wirkstoffe (jeweils 0,1 ml) in den Penis die übrigen Zweige, bis auf die Penisarterie, ligiert. Mit geeigneten Ventilator-Einstellungen (z.B. Tidalvolumen 10 ml/kg; Atmungsrate 15-20/Min.) wurde eine Normoxie (pH > 7,25, PO2 > 60 mmHg, PCO2 < 40 mmHg) erzeugt und mit ABGA und einem mit der ausgeatmeten Luft verbundenen Capnometer (Modell 2200, Traverse Medical Monitors, USA) überprüft. Um die Volumeneffekte von Lösungsmitteln zu beurteilen, wurden destilliertes Wasser und normale Kochsalzlösung intraarteriell infundiert. Intraarterielles Wasser und Kochsalzlösung hatten selbst bei einem Bolus keinen Effekt auf den intracavernösen Druck (ICP).
Die Lösungen des tricyclischen Pteridinon wurden unter Verwendung einer 1%igen 6N HCI- und einer 5%igen DMSO-Lösung hergestellt. Papaverin (50 mg) + Phentolamin (5 mg) (Bimix) wurde in 5 ml mit 5% DMSO/Rest Kochsalzlösung hergestellt. Jedes Arzneimittel wurde als Bolus von 0,1 ml und 0,05 ml heparinisierter Kochsalzlösung zum Spülen infundiert.
Der Grund-ICP, ΔICP (d.h. die reine Veränderung des Grund-ICP) und Veränderungen des systemischen Blutdrucks wurden nach der intraarteriellen Injektion aufgezeichnet. Alle Daten wurden mittels eines Student's t-Test beurteilt, wobei p<0,05 als signifikant galt. Die Daten priapischer Episoden wurden bei den Berechnungen ausgeschlossen.

[11] = i.v. bolus injection 0,5 mg/Tier

T1 sequence (Q14432 whole entry): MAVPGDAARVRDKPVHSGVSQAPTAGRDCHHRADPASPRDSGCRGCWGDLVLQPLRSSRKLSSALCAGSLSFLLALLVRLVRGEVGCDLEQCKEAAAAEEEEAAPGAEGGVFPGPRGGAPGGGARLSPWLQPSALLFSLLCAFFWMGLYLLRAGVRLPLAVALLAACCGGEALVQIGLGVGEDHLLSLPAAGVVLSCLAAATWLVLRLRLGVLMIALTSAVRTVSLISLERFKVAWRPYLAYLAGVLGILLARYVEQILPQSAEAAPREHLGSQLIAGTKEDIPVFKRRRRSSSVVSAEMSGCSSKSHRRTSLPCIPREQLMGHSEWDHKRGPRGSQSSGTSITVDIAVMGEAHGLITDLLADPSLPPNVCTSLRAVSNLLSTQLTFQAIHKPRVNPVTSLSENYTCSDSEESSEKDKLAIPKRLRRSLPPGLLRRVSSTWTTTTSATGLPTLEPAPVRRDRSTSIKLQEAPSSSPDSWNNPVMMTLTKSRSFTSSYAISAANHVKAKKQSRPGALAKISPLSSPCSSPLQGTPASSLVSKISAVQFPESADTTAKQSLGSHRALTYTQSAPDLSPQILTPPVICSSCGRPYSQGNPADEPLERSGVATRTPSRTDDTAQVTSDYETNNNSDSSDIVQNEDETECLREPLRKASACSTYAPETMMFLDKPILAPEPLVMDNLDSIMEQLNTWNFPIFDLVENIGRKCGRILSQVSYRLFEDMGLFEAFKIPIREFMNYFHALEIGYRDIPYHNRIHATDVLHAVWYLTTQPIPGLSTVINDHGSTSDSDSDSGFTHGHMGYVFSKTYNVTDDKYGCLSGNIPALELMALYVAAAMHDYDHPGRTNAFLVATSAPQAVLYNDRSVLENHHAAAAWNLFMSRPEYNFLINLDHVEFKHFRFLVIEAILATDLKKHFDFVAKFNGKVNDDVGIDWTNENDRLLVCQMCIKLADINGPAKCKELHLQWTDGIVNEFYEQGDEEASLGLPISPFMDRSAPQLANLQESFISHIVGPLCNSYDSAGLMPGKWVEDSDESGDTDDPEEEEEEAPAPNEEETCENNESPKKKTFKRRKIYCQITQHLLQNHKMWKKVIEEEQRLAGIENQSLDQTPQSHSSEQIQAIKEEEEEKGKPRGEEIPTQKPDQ

CC(=O)N[C@H](C(=O)O)C(C)(C)SN=O [SNAP, S-Nitroso-N-acetylpenicillamin, reference compound]
Relaxation der kavernösen, glatten Muskulatur ([1]; Fig. 2): unmittelbare Relaxation

CCc1nc(C)cn1-c1nc(C(C)C)c2[nH]c(=O)c3c(C)nc(CC)n3c2n1 [tricyclisches Pteridinon, 9-Ethyl-2-(2-ethyl-4-methyl-1H-imidazol-1-yl)-7-methyl-4-(2-propyl)imidazo[5,1-h]pteridin-6(5H)on]
IC50 [2]: 74 nM | Anstieg des cavernösen Drucks ([3]; Affen, given before administration of nitroprusside): keinen anhaltenden Anstieg | intracavernöser Druck nach systemischer Verabreichung ([3]; Affen, i.v. 1 and 3 mg/kg, Fig. 5): wirksam erhöht | Blutdrucksenkung ([3]; Affen, i.v. administration, 1 and 3 mg/kg): 20-40 mmHg | Maximaler Druck ([3]; Affen, 10^-4 Molar): 165 (1) cm H2O | Mittlerer Druckanstieg ([3]; Affen, 10^-4 Molar): 62 (1) Δ cm H2O | Maximaler Druck ([3]; Affen, 10^-5 Molar): 103 (3) cm H2O | Mittlerer Druckanstieg ([3]; Affen, 10^-5 Molar): 51 (3) Δ cm H2O | Maximaler Druck ([3]; Affen, 10^-6 Molar): 95 (2) cm H2O | Mittlerer Druckanstieg ([3]; Affen, 10^-6 Molar): 41 (2) Δ cm H2O | Adverse finding after pretreatment ([3]; one monkey, pretreatment 3 mg/kg followed by nitroprusside 10^-5 M i.c.): Priapismus | Zeit bis zu signifikanten Plasmamengen nach oraler Verabreichung [4]: ≤ 30 Minuten | Relaxation der kavernösen, glatten Muskulatur ([1]; Fig. 2): unmittelbare Relaxation | IC50 ([1]; Phenylephrin 10 µM, Indomethacin 10^-5 M, Fig. 1 (Kaninchen, and tissue of impotent patients), read-out: IC50-Wert für die Inhibierung der Phenylephrin-induzierten Kontraktion): ~1000 nM | Stärke im Vergleich zu SNAP ([1]; in vitro model, Fig. 2): stärker | Dauer des Nitroprussid-induzierten Anstiegs des cavernösen Drucks ([5]; 1 mg/kg given simultaneously with nitroprusside): verdoppelte | Dauer des Nitroprussid-induzierten Anstiegs des cavernösen Drucks ([5]; 3 mg/kg given simultaneously with nitroprusside): nahezu verdreifachten | IC50 [6]: > 10 µM | IC50 [7]: 35 nM | IC50 [8]: 5.8 nM | IC50 [9]: 56 nM | Erektionen steif (visuelle Bestimmung) ([10]; 0,1 mg/Tier): nicht als steif | Erektionen steif ([10]; higher doses (Fig. 3: 0,3 and 0,5 mg/Tier)): steifen Erektion | Dauer der vorübergehenden Spitzenabfälle des systemischen Arterienblutdrucks [10, 11]: ≤ 5 Minuten | Spitzenabfälle des systemischen Arterienblutdrucks [10, 11]: 15,8 mmHg | Anstieg des ICP ([10]; local intra-arterial administration, 0,1 mg/Tier, p<0,01): 5,5 mmHg | Dosis, die den ICP erhöht ([10]; local intra-arterial injection, 0,1 ml bolus, initial dose-finding study): ≥ 0,0038 mg | ICP, Dosisabhängigkeit ([10]; local intra-arterial injection, Fig. 3): erhöhte in dosisabhängiger Weise signifikant den ICP

From EP1312365A1, “Pteridinones for the treatment of erectile dysfunctions” (Jenapharm GmbH & Co. KG, priority 2001, dated 2003)
